Measurements reported in patent publication US9045403B2 (Coyote Pharmaceuticals, Inc., priority 2012, dated 2015).

Experiments:
[1] = system: Sprague Dawley rats, KA injected into the hippocampus; test: Time course of neuroprotection in the kainic acid model; format: in vivo, rat; conditions: for Difference of mean fraction damaged to pooled PBS / Mean fraction of hippocampus cells having KA-induced damage: 12 mg/kg oral; for Mean fraction of hippocampus cells having KA-induced damage: pooled PBS 0.187
Procedure: CNS-102 was administered orally to Sprague Dawley rats at 12 mg/kg. After dosing, KA was stereotactically injected into the hippocampus at 24, 48, 72, 96 and 168 hours to induce neuron damage. After 24 h, hippocampus tissue was collected, stained, and imaged. The scans were analyzed by Image J to calculate the fraction of cells having KA-induced damage. Average fraction damaged in the hippocampus from ten animals for each treatment (PBS vs. 12 mg/kg CNS-102) by time (24, 48, 72, 96 and 168 hours) combination was estimated with PROC MIXED in SAS. Comparisons of the CNS-102 treatment groups to the pooled PBS treatment at the different times can be made, giving the results tabulated below.

[2] = mouse, in vivo, po, 12 mg/kg
Procedure: A total of 84 male mice (64 transgenic Sod1 mutant mice; 20 wild type mice) were included in the study. Dosing was administered daily beginning at postnatal day 38 (P38) via a single bolus oral gavage injection.
Blood and serum samples from days P70 and P100 were collected on three animals from each of the six treatment groups. Hematology measures were white blood cell count, red blood cell count, hemoglobin, hematocrit, mean corpuscular volume, mean corpuscular hemoglobin, mean corpuscular hemoglobin concentration, and platelets. Chemistry values were alanine aminotransferase, aspartate aminotransferase, albumin, total protein, gamma globulin, blood urea nitrogen, cholesterol, and glucose.

[3] = system: Mouse Neuro2A neuroblastoma cells; test: Neuro2A cells with neurites after GGTI-298 (Example 16); format: cell-based; conditions: 10 μM, 48 hrs
Procedure: Mouse Neuro2A neuroblastoma cells were cultured in DMEM supplemented with 10% FBS for 24 hrs. […] Then differentiation was induced by retinoic acid in DMEM supplemented with 2% FBS. The cell culture was incubated with a Geranylgeranyl Transferase inhibitor, GGTI-298. […]

HSP70 = HSP70 expression in Neuro2A cells by western blot; format: cell-based, mouse; conditions: Neuro2A cells, western blot
Procedure: Differentiation was induced and cells incubated with geranylgeranyl transferase I inhibitor, GGTI-298. Cells were harvested and lysates were prepared and analyzed by western blot for HSP70 and HSP90. Western signals in the absence of the compounds were normalized as 1.00.

CC(=O)CC/C=C(\C)CC/C=C(\C)CC/C=C(\C)CCC=C(C)C [CNS-102]
Difference of mean fraction damaged to pooled PBS ([1]; KA at 24 hours): 0.005 | Mean fraction of hippocampus cells having KA-induced damage ([1]; KA at 24 hours): 0.193 | Difference of mean fraction damaged to pooled PBS ([1]; KA at 48 hours): −0.064 | Mean fraction of hippocampus cells having KA-induced damage ([1]; KA at 48 hours): 0.123 | Difference of mean fraction damaged to pooled PBS ([1]; KA at 72 hours): −0.092 | Mean fraction of hippocampus cells having KA-induced damage ([1]; KA at 72 hours): 0.096 | Difference of mean fraction damaged to pooled PBS ([1]; KA at 96 hours): −0.056 | Mean fraction of hippocampus cells having KA-induced damage ([1]; KA at 96 hours): 0.131 | Difference of mean fraction damaged to pooled PBS ([1]; KA at 168 hours): −0.026 | Mean fraction of hippocampus cells having KA-induced damage ([1]; KA at 168 hours): 0.162 | timepoint of maximal protection effect ([1]; single oral dose of 12 mg/kg): 72 h | ABSOLUTE BASOPHIL [2]: 0 per mm^3 | BASOPHIL (%) [2]: 0.0% | CALCIUM [2]: 7.7 mg/dL | CREATININE [2]: <1 mg/dL | DIRECT BILIRUBIN [2]: 0.0 mg/dL | EOSINOPHIL (%) [2]: 1.5% | HCT [2]: 46.0% | INDIRECT BILIRUBIN [2]: 0.0 mg/dL | LYMPHOCYTE (%) [2]: 84.0% | MONOCYTE (%) [2]: 0.8% | NRBC (per 100 WBC) [2]: 0.0 per 100 WBC | PHOSPHORUS [2]: 5.7 mg/dL | PLATELET COUNT (Thousands) [2]: 1128.6 Thousands | RBC (Millions) [2]: 8.8 Millions | TOTAL BILIRUBIN [2]: 0.0 mg/dL | WBC (thousands) [2]: 4.7 thousands | blood and neurology examinations (in words) [2]: no abnormalities in blood and neurology examinations | Mean of cell numbers (Arbitrary units) [3]: 0.738 Arbitrary units | induction of HSP70 expression (in words) (HSP70): induce expression of HSP70 at various concentrations
